The text below walks through data of patent US12343335B2, “Pharmaceutical composition for treating multiple sclerosis on basis of AMPK inhibitory function and zinc homeostasis control function” (ZINCURE CORP., priority 2019, dated 2025).

Data set [1] has as its system spinal cord of MOG35-55 immunized EAE mice. The data set can be described thus: Immunofluorescence staining of spinal cord of EAE mice. It is filed as in vivo, C57BL/6 female mice. The protocol:
(§1) The present inventors induced experimental autoimmune encephalomyelitis (EAE), an animal model of multiple sclerosis, by subcutaneously injecting Myelin oligodendrocyte glycoprotein 35-55 (MOG35-55) peptide antigen into C57BL/6 female mice (FIG. 1A). For this, MOG35-55 (Ana spec, USA) and Complete freund's adjuvant (CFA) were first prepared, and MOG35-55 (2 mg/ml) was dissolved in Phosphate buffered saline (lx PBS, Sigma), and then the 25 ml of CFA was prepared by dispending 25 ml of incomplete freund's adjuvant (IFA. Sigma) in a 50 ml conical tube. Then, in a fume hood, Mycobacterium tuberculosis H37Ra (100 mg; Difco, USA) was added to the IFA in order to prepare CFA and store it in the refrigerator after vortexing before use. Thereafter, MOG35-55 and CFA containing Mycobacterium tuberculosis H37Ra was mixed in the same amount and injected into both flanks of the mice. And then Pertussis toxin (4 μg/ml, List Biological Laboratories, USA) was injected intraperitoneally on the day of immunization and on the second day after immunization. After the immunization, the mice's body weight and clinical symptoms were measured every day, and the degree of EAE progression was evaluated based on specific clinical symptoms. More details on this are provided below.
On the 21st day after EAE induction, the present inventors anesthetized mice with urethane and then perfused 4% paraformaldehyde into the heart to fix the spinal cord. After extracting the spinal cord, in order to examine demyelination of activity of microglia/macrophages the cell/macrophage activity of the tissue, immunofluorescence staining was performed with anti-myelin basic protein (MBP) and anti-F4/80 (Microglia/Macrophage) antibodies. In addition, anti-bodies against ionized calcium binding adapter molecule-1 (Iba-1) and anti-CD68 (Cluster of Differentiation 68) used as markers of microglia/macrophages to analyze the phenotype of strongly activated microglia/macrophages in the white matter part of the damaged spinal cord. Double immunofluorescence staining was performed using antibodies against CD8 and matrix metalloproteinase 9 (MMP-9) in order to investigate how AMP-activated protein kinase (AMPK) activity affects the survival of these cells. In addition, double immunofluorescence staining was performed using anti-CD8 and anti-phospho-AMPK antibodies to determine how AMP-activated protein kinase (AMPK) activity affects the survival of these cells in T cells infiltrating the spinal cord. In order to compare and analyze the activity of (MMP-9), immunofluorescence staining was performed using anti-MMP-9 antibodies. To examine the activity of astrocytes in the spinal cord, immunofluorescence staining was performed using anti-glial fibrillary acidic protein (GFAP) antibodies. To compare and analyze the expression of cytokines such as tumor necrosis factor (TNF) alpha and interferon (IFN) gamma, double immunofluorescence staining was performed using anti-TNF-alpha and anti-IFN gamma antibodies. In the same manner as the immunohistochemical method described above, the cryosections were reacted with 3% hydrogen peroxide at room temperature for 15 minutes to remove endogenous peroxidase, and then the primary antibodies, rat anti-MBP (1:200, Abcam, UK), anti-F4/80 (1:100, eBioscience, USA), goat anti-Iba1 (1:500, Abcam), anti-CD68 (1:100, Bio-Rad Laboratories, USA), anti-CD8 (1:50, BD Bioscience), anti-p-AMPK (1:100, Abcam), anti-MMP-9 (1:100, Abcam), anti-GFAP (1:500, Abcam), anti-IFN gamma (1:100, Invitrogen, USA), anti-TNF alpha (1:250, Abcam) antibodies were reacted for 15 hours at 4° C. Then, Alexa Fluor 488-, 594-, 647-conjugated secondary antibodies (1:250, Invitrogen, USA) suitable for the host of each primary antibodies were reacted at room temperature for 2 hours. […]

In data set [2] the test system is spinal cord of EAE mice. The data set is described as follows: Immunohistochemistry of spinal cord of EAE mice (CD4, CD8, CD20, IgG leakage). The format is in vivo, C57BL/6 female mice. The protocol:
as §1
On the 21st day after EAE induction, the present inventors anesthetized mice with urethane and then perfused 4% paraformaldehyde into the heart to fix the spinal cord. And then, an immunohistochemistry was performed using anti-CD4, anti-CD8, and anti-CD20 antibodies […]. Cryosections were reacted with 3% hydrogen peroxide at room temperature for 15 minutes to remove endogenous peroxidase, and then primary antibodies, rat anti-CD4 (1:50, BD Bioscience, CA, USA), anti-CD8 (1:50, BD Bioscience) and goat anti-CD20 (1:50, SantaCruz Biotechnology, USA) antibodies were reacted for 15 hours at 4° C. Thereafter, biotinylated anti-rat IgG or anti-goat IgG (1:250, Vector Laboratories, USA) was reacted at room temperature for 2 hours. […]

In data set [3] the test system is mouse cortical neuron culture. The data set can be described thus: Intrinsic toxicity in cortical neuron culture, LDH cytotoxicity. It is filed as cell-based. The note with it: 40 μM. The protocol:
The mouse cortical neurons used in the present invention were extracted from the brain of a mouse embryo, and cultured in Dulbecco's modified Eagle's medium (DMEM, Gibco, Grand Island, NY, US) supplemented with 5% fetal bovine serum (FBS) and 5% horse serum (HS) under the condition of 95% humidity, 5% CO2 and 37° C. For activation and differentiation of the cells, the cells were grown to a density of 2×10^4 cells in a 24-well tissue culture plate and cultured in MEM medium without FBS and HS before treatment with zinc and compounds.
Specifically, 40 μM of each of the drugs was treated in a mouse cortical neuron culture, and LDH cytotoxicity was observed after 24 or 48 hours.

Setting [4] is: spinal cord white matter, day 21 after EAE induction, compared to vehicle only.
Setting [5] is: spinal cord, day 21 after EAE induction, vs vehicle.

For `O=C1N=C(Nc2cccc(O)c2)S/C1=C\c1c[nH]c2ccccc12` [1H10, (Z)-5-((1H-indol-3-yl)methylene)-2-((3-hydroxyphenyl)amino)thiazol-4(5H)-one], the “phosphorylation of AMPK in CD8+ T cells infiltrated into the spinal cord” value in data set [1] (after EAE induction, vs vehicle) is “significantly decreased”. For the same compound, the “activity of MMP-9” value in data set [1] (spinal cord white matter, EAE, compared to vehicle only) was “inhibited”. Further, the “activity of astrocytes (GFAP)” value in data set [1] (spinal cord white matter, day 21, vs vehicle) was “significantly inhibited”. Also, in data set [1] (setting [4]), the “expression of IFN gamma” value was “increased” and the “expression of TNF alpha” value is listed as “decreased”. In addition, the “activated M1-type microglia/macrophages (Iba-1 and CD68 co-expression)” value in data set [1] (spinal cord, after EAE induction, vs vehicle) was “significantly reduced”. Further, in data set [1] (setting [5]), the “EAE-induced demyelination (MBP staining)” value was “significantly decreased” and the “activity of microglia/macrophages (F4/80)” value was “significantly decreased”. Besides, in data set [2] (Sham group (no EAE induction), white or gray matter), the “IgG staining due to damage of BBB” value is “not detected”. In addition, the “infiltration of the T and B cells (CD4, CD8, CD20)” value in data set [2] (spinal cord white matter, after EAE induction, vs vehicle) is on record as “significantly inhibited”. In addition, the “IgG infiltration (BBB damage)” value in data set [2] (white and gray matter, 3 weeks after MOG injection) is reported as “significantly reduced”. Further, the “intrinsic toxicity (LDH cytotoxicity)” value in data set [3] (after 24 hours of drug treatment) is given as 7.81±2.77%. Further, in data set [3] (after 48 hours of drug treatment), the “intrinsic toxicity (LDH cytotoxicity)” value is on record as 60.72±8.28%.
